Measured values taken from EPA's ToxValDB 9.5 (doi:10.2903/j.efsa.2010.1904).
Values after ≈ are worked out from the molar mass of the structure shown.

Assays:
Anas platyrhynchos = details: oral, mortality
Apis mellifera = details: acute; duration: 48 hours; oral; unspecified; mortality
Canidae = details: chronic; duration: 52 weeks; oral; Dog Other
Daphnia magna = details: chronic/long-term; duration: 21 days
Ictalurus punctatus = details: acute; duration: 96 hours; mortality
Oncorhynchus mykiss = details: chronic/long-term; duration: 21 days
Oryctolagus sp. = details: reproduction developmental; reproduction

How did the LD50 (Anas platyrhynchos; acute, unspecified) turn out when `N#Cc1sc2c(=O)c3ccccc3c(=O)c=2sc1C#N` [Dithianon] was run?
The LD50 was greater than 2000 mg/kg-day.

What about the LC50 (Anas platyrhynchos; short-term, feed) of the same compound?
The LC50 was greater than 790 mg/kg-day.

And the LD50 (Apis mellifera)?
Its LD50 is greater than 25.4 µg/piece.

What about the NOAEL (Canidae) of the same compound?
The NOAEL was 1.6 mg/kg-day.

And the LC50 (Colinus virginianus; acute, oral, diet, mortality)?
Its LC50 is greater than 1200 mg/kg-day.

What about the LD50 (Colinus virginianus; acute, oral, mortality) of the same compound?
Its LD50 is 309 mg/kg-day.

And the NOEC (Colinus virginianus; reproduction developmental, reproduction)?
The NOEC was 22.8 mg/kg-day.

And the NOEC (Daphnia magna)?
Its NOEC is 0.0595 mg/L.

And the LC50 (Ictalurus punctatus)?
Its LC50 is 0.0143 mg/L (≈ 0.0483 µM).

And the NOEC (Oncorhynchus mykiss)?
The NOEC was 0.00046 mg/L.

And the NOAEL (Oryctolagus sp.)?
The NOAEL was 25 mg/kg-day.

What about the LD50 (Rattus norvegicus; acute, oral, mortality) of the same compound?
The LD50 was less than 500 mg/kg-day.

And the NOAEL (Rattus norvegicus; chronic, histopathology: neoplastic)?
The NOAEL was 1 mg/kg-day.

What about the NOAEL (Rattus norvegicus; short-term, duration: 7 days, oral, histopathology: nonneoplastic) of the same compound?
The NOAEL was 12 mg/kg-day.

What about the NOAEL (Rattus norvegicus; short-term, duration: 28 days, oral, histopathology: nonneoplastic) of the same compound?
Its NOAEL is 12 mg/kg-day.

And the LC50 (Tagia sp.; acute, duration: 14 days, mortality)?
The LC50 was 578 mg/kg.

And the NOEC (Tagia sp.; chronic/long-term, duration: 56 days, reproduction)?
The NOEC was 48 mg/kg.
